Molecular target: T1, PPARγ (Homo sapiens, UniProt P37231)
T1 construct: gene PPARG
T1 sequence (P37231 231-505 limits assumed): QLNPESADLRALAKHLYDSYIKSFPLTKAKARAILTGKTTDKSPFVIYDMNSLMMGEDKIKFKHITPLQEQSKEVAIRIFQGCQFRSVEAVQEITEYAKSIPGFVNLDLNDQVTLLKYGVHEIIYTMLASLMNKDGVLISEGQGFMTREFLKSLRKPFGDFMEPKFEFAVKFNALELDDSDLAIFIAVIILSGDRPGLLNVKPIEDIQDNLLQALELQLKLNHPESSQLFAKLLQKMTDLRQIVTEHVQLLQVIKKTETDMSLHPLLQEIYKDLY
Assay: fluorescence polarization competitive binding assay (PolarScreen PPARγ Green)

| Compound | IC50 [nM] |
| --- | --- |
| CCCCC/C=C\C=C\C(O)CCCCCCCC(=O)O (centres unmarked) [9-hydroxyoctadecadienoic acid] | 1800 |
| O=C(Nc1ccccc1)c1cc([N+](=O)[O-])ccc1Cl [GW9662] | 22.3 |

— article PMC11673078, “DT-13 Mediates Ligand-Dependent Activation of PPARγ Response Elements In Vitro” (Biology, 2024)
